Consider 7 compounds from patent publication US20250100987A1 (priority 2021, published 2025).

The EC50 is the concentration that produces a half-maximal response. Usually inhibition stands for the change of the read-out against control, counted positive when it falls.

Experiment in all cases: cell-based
The target in assay [1] is T1, Kappa opioid receptor (KOR) (Homo sapiens, UniProt P41145).
The target in assay [2] is T1, Kappa opioid receptor (KOR). The source holds these as a separate data set.
The target is the same in assay [3]. This is another data set of the same source.

Read-outs that look alike come from different tables or passages of the source.

T1 sequence (P41145 whole entry): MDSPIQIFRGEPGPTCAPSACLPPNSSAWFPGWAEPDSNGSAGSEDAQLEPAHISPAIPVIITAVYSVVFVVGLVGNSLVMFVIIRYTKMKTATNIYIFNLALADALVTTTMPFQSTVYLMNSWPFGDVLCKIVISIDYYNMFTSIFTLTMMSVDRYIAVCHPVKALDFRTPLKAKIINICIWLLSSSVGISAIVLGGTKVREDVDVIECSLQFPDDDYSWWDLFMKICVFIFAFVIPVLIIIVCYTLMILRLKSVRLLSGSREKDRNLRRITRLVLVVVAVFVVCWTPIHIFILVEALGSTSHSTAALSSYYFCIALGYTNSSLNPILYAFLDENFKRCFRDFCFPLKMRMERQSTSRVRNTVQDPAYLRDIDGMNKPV

Take `COC(=O)[C@@H]1C[C@H](OC(C)=O)C(=O)[C@@H]2[C@@]3(C)C[C@@H](c4ccoc4)CC(=O)[C@@H]3CC[C@]21C` (racemic) [ALB-230937, O6C-20-nor-SalA racemic mixture]: the EC50 is less than 0.0001 µM in assay [1], less than 1 nM in assay [2] (EC50 Potency Score) and less than 1 nM in assay [3] (EC50 Potency Score). Moreover, the inhibition at 0.0001 µM in assay [1] (read-out: inhibition of cAMP production) was determined as 100%.
Turning to `COC(=O)[C@@H]1C[C@@H](OC(C)=O)C(=O)[C@@H]2[C@@]3(C)C[C@@H](c4ccoc4)CC(=O)[C@@H]3CC[C@]21C` [ALB-230935, 2-cpi-O6C-20-nor-SalA], the EC50 in assay [2] (EC50 Potency Score) and in assay [3] (EC50 Potency Score) was 1 to 100 nM throughout.
Consider `COCO[C@H]1C[C@@H](C(=O)OC)[C@]2(C)CC[C@H]3C(=O)C[C@H](c4ccoc4)C[C@@H]3[C@H]2C1=O` [ALB-231273], for which the concentration for a half-maximal effect (EC50) in assay [2] (EC50 Potency Score) was less than 1 nM; in assay [2] (estimated EC50) it was less than 0.1 nM; in assay [3] (EC50 Potency Score), less than 1 nM; in assay [3] (estimated EC50), less than 0.1 nM.
For `COC(=O)[C@@H]1C[C@H](O)C(=O)[C@@H]2[C@H]3C[C@@H](c4ccoc4)CC(=O)[C@@H]3CC[C@]21C` [ALB-231274, O6C-20-nor-SalB], the half-maximal effective concentration (EC50) in assay [2] (EC50 Potency Score) fell in the range of 100 to 1000 nM; in assay [3] (EC50 Potency Score), 1000 to 10000 nM.
For the compound `COC(=O)[C@@H]1C[C@H](OC(=O)/C=C/c2ccccc2)C(=O)[C@@H]2[C@H]3C[C@@H](c4ccoc4)CC(=O)[C@@H]3CC[C@]21C` [ALB-231360], the figures for the EC50 in assay [1], in assay [2] (EC50 Potency Score) and in assay [3] (EC50 Potency Score) were roughly 46 µM, 1000 to 10000 nM and 1000 to 10000 nM, respectively.
As to “O6C-20-nor-SalA Enantiomer A [ALB-230936]”, the EC50 in assay [2] (read-out: EC50 Potency Score) and in assay [3] (read-out: EC50 Potency Score) was less than 1 nM throughout.
On to “O6C-20-nor-SalA Enantiomer B [ALB-230932]”, for which the half-maximal effective concentration (EC50) in assay [2] (read-out: EC50 Potency Score) and in assay [3] (read-out: EC50 Potency Score) was 1 to 100 nM in each case.
